In publication PMC9866314 (Viruses, 2022):

What was measured:
FMDV serotype A (NP05) = assay: microbe, parasite or virus in culture; assay type: cell-based; conditions: Foot-and-mouth disease virus; for EC50: BHK-21, read-out: Antiviral Activity EC50; for EC90: BHK-21, read-out: Antiviral Activity EC90
in vitro = conditions: hamster
[1] = tested on: RD114 glycoprotein (RD114pp) of endogenous feline retrovirus; conditions: read-out: IC50 against RD114pp; cited from earlier work

| SMILES | EC50 (FMDV serotype A (NP05)) | EC90 (FMDV serotype A (NP05)) | CC50 (in vitro) | IC50 [1] |
| --- | --- | --- | --- | --- |
| CO[C@@H]1C[C@@H](C[C@H]2CC[C@H](C)[C@H]([C@@H](C)C(=O)O)O2)O[C@]2(O[C@](C)([C@H]3CC[C@@](C)([C@@H]4O[C@@H]([C@H]5O[C@@](O)(CO)[C@H](C)C[C@@H]5C)C[C@@H]4C)O3)C[C@H]2C)[C@@H]1C [NSC292567, Pandavir/Nigericin] | 420 ± 80 nM | 3.85 ± 0.34 µM | 49.9 ± 1.7 µM |  |
| CCOC(=O)/C=C/[C@H](C[C@@H]1CCNC1=O)NC(=O)[C@@H](CC(=O)[C@@H](NC(=O)c1cc(C)on1)C(C)C)Cc1ccc(F)cc1 [Rupintrivir, reference compound] | 2020 ± 300 nM | 12.1 ± 1.6 µM | > 100 µM |  |
| O=C1CCCc2cc3c(cc21)CC1(C3)Cc2cc3c(cc2C1)C(=O)CCC3 [NSC670283, 2,2′-spirobi [3,6,7,8-tetrahydro-1H-cyclopenta[g]naphthalene]-5,5′-dione] | 3380 ± 1020 nM | 30.45 ± 0.25 µM | > 100 µM | 3000 nM |
| NC(=O)c1ncn([C@@H]2O[C@H](CO)[C@@H](O)[C@H]2O)n1 [Ribavirin, 1-β-d-ribofuranosyl-1,2,4-triazole-3-carboxamide, reference compound] | 42890 ± 420 nM | 393.6 ± 2.56 µM | > 100 µM |  |
| CC1=CC(C)(C)Nc2ccc(Cc3ccc4c(c3)C(C)=CC(C)(C)N4)cc21 [NSC217697, 6,6′-methylene bis(2,2,4-trimethyl-1,2-dihydroquinoline)] | 780 ± 100 nM | 9.52 ± 0.18 µM | > 100 µM |  |
